Structures are written as SMILES.

Experimental findings from patent US20040259948A1, “Reciprocal regulation of inflammation and lipid metabolism by liver X receptors” (priority 2003, published 2004) are described below.

The subject of the assay is Thioglycolate-elicited murine peritoneal macrophages. The experiment in a line: IL-1β- or TNFα-induced inflammatory gene expression in macrophages. In kind it is cell-based. Conditions: pretreated 18 h; IL-1β or TNFα (50 ng/ml); real-time quantitative PCR. As to the method: Next, the influence of LXR agonists on inflammatory gene expression induced by IL-1β and TNFα, which have been implicated in the pathogenesis of atherosclerosis, was tested. […] Gene expression was detected by real-time quantitative PCR assays. […] Total RNA was isolated from individual aortas and gene expression was measured by real-time quantitative PCR. P<0.05 for MMP-9 (*) and P<0.01 (**) for ABCA1. […] Thus, LXR agonist reduces expression of an established inflammatory mediator in the vessel wall. Cell culture and transfections. Thioglycolate-elicited peritoneal macrophages were cultured in RPMI containing 10% fetal bovine serum (FBS). RAW 264.7 cells were cultured in DMEM containing 10% FBS. For ligand treatments, cells were in cultured medium supplemented with 5% lipoprotein-deficient serum (LPDS) and ligands for 18 h before stimulation. Bacterial infection in vitro was performed as described (Chen, L. M. et al. 1996 Mol Microbiol 21:1101-1115). Transient transfections of RAW 264.7 cells were performed in triplicate in 48-well plates using Superfect reagent (Life Technologies). After transfection, cells were incubated in medium containing 10% LPDS and the indicated ligands for 18 h before stimulation with LPS for an additional 18 h. Luciferase activity was normalized to β-galactosidase activity. NO production was determined spectrophotometrically (Castrillo, A. et al. 2000 Mol Cell Biol 20:1692-1698). RNA and protein analysis. Total RNA was extracted using Trizol reagent (Life Technologies, Inc.). Northern blot analysis was carried out as described using radiolabeled cDNA probes (Tontonoz, P. et al. 1998 Cell 93:241-252). Real-time quantitative PCR (TaqMan) analysis was performed using an Applied Biosystems 7700 sequence detector. Two-step real-time PCR was performed as described (Joseph, S. B. et al. 2002 J Biol Chem 277:11019-11025). The primers and probes used are as follows: […]

Consider `O=C(O)Cc1cccc(OCCCN(Cc2cccc(C(F)(F)F)c2Cl)CC(c2ccccc2)c2ccccc2)c1` [GW3965], for which the “induction of IL-6 expression” value is given as “inhibited” and the “induction of iNOS expression” value is reported as “inhibited”.
